This is an account of results in patent publication US8202909B2, “Method for treating central nervous system disorders” (Sucampo AG, priority 2005, dated 2012).

Marks after values point to notes of the source that are not given here.

Assay [1] relates to Human microvascular endothelial cells (adult) (HMVEC-AD). As to the kind of experiment: Recovery of ATP level after nitrogen atmosphere (luciferin-luciferase assay). It is filed as cell-based. The settings on record: 5 nM, after 30 minutes nitrogen atmosphere, compared to cells treated with 0.01% DMSO alone; FIG. 2. The method, then:
FIG. 2 is a graph showing the effect of Compound A on Recovery of ATP Level. Human microvascular endothelial cells (adult) (HMVEC-AD) were grown to confluence. The cells were then treated for 30 minutes with a nitrogen atmosphere and returned to normal oxygen. ATP levels were monitored at the indicated time points using a luciferin-luciferase assay system (ATPlite, Perkin Elmer). ATP levels are given as relative luminescence. N=6 cells at each time point.
Human microvascular endothelial cells (adult) (HMVEC-AD) were grown to confluence. The cells were then treated for 30 minutes with a nitrogen atmosphere and returned to normal oxygen. ATP levels were monitored at the indicated time points using a luciferin-luciferase assay system (ATPlite, Perkin Elmer).

Assay [2] has as its system Alzheimer's disease model animals. As to the kind of experiment: Morris water maze test in Alzheimer's disease model animals (bilateral ibotenic acid lesions of basal ganglia). It is filed as in vivo, rats. The method, then: Alzheimer's disease model animals were prepared by bilateral ibotenic acid lesions of basal ganglia in rats. Briefly, rats were anesthetized with pentobarbital sodium and placed in a small animal stereotaxic apparatus. Bilateral infusions of 5 μg/0.5 μL of ibotenic acid into the basal ganglia were made at a rate of 0.1 μL/min via a syringe pump and a stainless steel cannula (outer diameter: 0.5 mm). Stereotaxic coordinates were as follows: −0.8 mm posterior from bregma, 2.6 mm lateral (both sides) from midline, and 7.4 mm depth from the bone surface. Animals in sham group received only anesthesia. Animals were then housed with free access to food and water for the rest of the study.
Compound A was orally administered for 14 days after surgery to the model animals. Control group received the same amount of the vehicle.
Morris water maze test was performed to evaluate the effect of test compound. The water maze was a circular pool (painted gray, 1.48 m in diameter, 0.33 m high). The pool contained water that was maintained at a temperature of 17-18° C. During testing in the water maze, a platform, 12 cm in diameter, was located 2 cm below the water in one of four locations (zone 4) in the pool, approximately 38 cm from the sidewall. A light bulb was placed around the pool as a cue external to the maze. The animals received 2 trials per day from 10 days after the initiation of the administration with Compound A or the vehicle. The rats were trained to locate the hidden escape platform, which remained in a fixed location throughout testing. Trials lasted a maximum of 90 sec. The latency to find the submerged platform was recorded and used as a measure of acquisition of the task. The animals were tested in this way for 4 days (total 8 trials), and then they received a probe trial on the 5th day. […] The time the rat spent searching for the platform in the training quadrant (zone 4): i.e., the previous location of the platform was recorded and used as an index of memory.

Assay [3] concerns Human vascular endothelial cell cultures. As to the kind of experiment: Recovery of transendothelial electrical resistance (TEER) after oxygen deprivation. To be noted: 5 nM with 0.1% DMSO, after 30 minutes oxygen deprivation in nitrogen atmosphere; FIG. 1. It is filed as cell-based. The method, then:
FIG. 1 is a graph showing the effect of Compound A on Recovery of Transendothelial Electrical Resistance (TEER). Human vascular endothelial cell cultures were brought to confluence, as measured by transendothelial electrical resistance (TEER). The cell cultures were then deprived of oxygen for 30 minutes by incubation in a nitrogen atmosphere. The cells were then either treated with 0.1% DMSO or with 5 nM Compound A with 0.1% DMSO. Statistical significance is indicated at all data points after drug treatment. N=10 cells.
Human vascular endothelial cell cultures were brought to confluence, as measured by transendothelial electrical resistance (TEER). The cell cultures were then deprived of oxygen for 30 minutes by incubation in a nitrogen atmosphere. The cells were then either treated with 0.1% DMSO or with 5 nM Compound A with 0.1% DMSO final.

Assay [4] deals with ddY mice. The assay is described as follows: Persistent time of gasping movements after decapitation in mice, subcutaneous (Example 1). Format: in vivo. The settings on record: for Persistent Time of Gasping Movements: decapitated 30 minutes after administration, Mean ± SE, n=10. The method, then:
(§1) Four-week-old male ddY mice were housed in aluminum cages in an animal room controlled for temperature (24±3° C.), relative humidity (55±10%), ventilation rate (˜12 times/hour) and light-dark cycle (fluorescent lighting: 8:00 to 20:00) for at least 7 days. The animals were allowed free access to pellet diet and tap water from water bottles. Healthy animals without abnormalities in general signs were used in this study.
11-deoxy-13,14-dihydro-15-keto-16,16-difluoro-PGE1 (hereinafter, “Compound A”) was dissolved in a vehicle (physiologic saline containing 0.01% polysorbate 80 and 0.5% ethanol), and was administered subcutaneously to the animals. The control group received an equal amount of the vehicle in the same manner.
(§2) The animals were decapitated at 30 minutes after the administration, and the persistent time of gasping movements was measured.

Assay [5] concerns ddY mice. As to the kind of experiment: Persistent time of gasping movements after decapitation in mice, oral administration (Example 2). It is filed as in vivo. The settings on record: for Persistent Time of Gasping Movements: fasted mice, decapitated 30 minutes after administration, Mean ± SE, n=10; for Effect on persistent time of gasping movement after decapitation (in words): oral administration at 100, 300 and 1000 μg/kg. As for the experimental part:
Four-week-old male ddY mice were housed in aluminum cages in an animal room controlled for temperature (24±3° C.), relative humidity (55±10%), ventilation rate (˜12 times/hour) and light-dark cycle (fluorescent lighting: 8:00 to 20:00) for at least 7 days. The animals were allowed free access to pellet diet and tap water from water bottles. Healthy animals without abnormalities in general signs were used in this study. The animals were fasted for 20 hours or longer with free access to water before use.
Compound A and 11-deoxy-13,14-dihydro-15-keto-16,16-difluoro-PGE1 methyl ester (hereinafter, “Compound B”) were dissolved in a vehicle (physiologic saline containing 0.01% polysorbate 80 and 0.5% ethanol), and was administered orally to the animals. The control group received an equal amount of the vehicle in the same manner.
as §2

Assay [6] deals with Crj: CD (SD) male rats. As to the kind of experiment: Cerebral infarct volume after transient focal cerebral ischemia (MCA occlusion-reperfusion) in rats. Format: in vivo. To be noted: for Infarct volume: brain removed 24 hours after MCA occlusion, mean±S.E., n=10. The method, then:
Seven-week-old Crj: CD (SD) male rats were housed in polymethylpentene cages in an animal room controlled for room temperature (22-26° C.), relative humidity (47-60%), ventilation rate (10-20 times/hour) and light-dark cycle (lighting: 7:00 to 19:00) for at least 6 days. The animals were allowed free access to pellet diet and water from water bottles. Animals judged to be in good health were used in this study.
Rats were anesthetized by inhalation of a gas mixture of 2% isoflurane and N2O:O2 (=7:3), stabilized in the supine position, and maintained in the anesthetized state by inhalation of the above gas mixture. The animals were monitored for rectal temperature using a temperature probe during the period of the surgical operation. When a fall in body temperature was observed, an incandescent lamp was used to maintain the temperature at around 37° C. The right common carotid artery, external carotid artery, and internal carotid artery were exposed for occluding the middle cerebral artery (hereafter, MCA). The right common carotid artery and the external carotid artery were ligatured using sutures (5-0), and a 19 mm-long segment of No. 4-0 nylon suture which were precoated with silicone was inserted into the MCA through the bifurcation of the external and internal carotid arteries to occlude the MCA. At 2 hours after the MCA occlusion, the suture was removed and the blood flow in the MCA was restored.
Compound A was dissolved in a vehicle (physiological saline containing 1% polysorbate 80), and was administered intravenously to the animals at a volume of 2 mL/kg immediately after the MCA occlusion-reperfusion and 30 minutes after the MCA occlusion-reperfusion. The control group received an equal volume of the vehicle in the same manner.
At 24 hours after MCA occlusion, the animals were decapitated and the brains were immediately isolated. […] Graphic analysis (Adobe Photoshop™, version 3.0 J; Adobe Systems Incorporated, Color Count 0.3b; K&M Software Corporation) was applied to the photographs, and the infarct area was measured. […]

Assay [7] relates to ddY mice. The assay is described as follows: Persistent time of gasping movements after decapitation in mice, subcutaneous (Example 3). Format: in vivo. To be noted: 300 μg/kg s.c. As for the experimental part:
as §1
11-deoxy-13,14-dihydro-16,16-difluoro-PGE1 (hereinafter, “Compound C”) was dissolved in a vehicle (physiologic saline containing 0.01% polysorbate 80 and 0.5% ethanol), and was administered subcutaneously to the animals. The control group received an equal amount of the vehicle in the same manner.
as §2

For the molecule `CCCCC(F)(F)C(=O)CCC1CCC(=O)C1CCCCCCC(=O)O` (centres unmarked) [Compound A, 11-deoxy-13,14-dihydro-15-keto-16,16-difluoro-PGE1], in assay [1], the “Recovery of ATP level (in words)” value is on record as “ATP levels returned more quickly”. Further, the “Goal latency (8th trial)” value in assay [2] (1 mg/kg orally for 14 days after surgery, mean ± SE, n=10, p<0.01 vs vehicle) turned out to be 51.5 ± 13.7 s. Further, the “Time spent in zone 4” value in assay [2] (1 mg/kg orally for 14 days after surgery, probe trial 90 sec, mean ± SE, n=10, p<0.05 vs vehicle) amounted to 20.8 ± 3.6 s. Moreover, the “Effect on deficit in learning and memory (in words)” value in assay [2] (orally for 14 days after surgery, Morris water maze) was “significant reversals of the deficit in learning and memory”. In addition, the “Recovery of TEER (in words)” value in assay [3] is listed as “immediate recovery of TEER”. Also, the “Persistent Time of Gasping Movements” value worked out at 21.7 ± 0.6 s in assay [4] (10 μg/kg s.c.); 22.0 ± 0.4 s in assay [4] (30 μg/kg s.c.); 23.2 ± 0.8 s in assay [4] (100 μg/kg s.c., p<0.05 vs vehicle); 23.6 ± 0.6 s in assay [4] (300 μg/kg s.c., p<0.01 vs vehicle); 18.8 ± 0.5 s in assay [5] (100 μg/kg p.o.); 18.9 ± 0.3 s in assay [5] (300 μg/kg p.o.). For the same molecule, in assay [5] (1000 μg/kg p.o.), the “Persistent Time of Gasping Movements” value amounted to 20.2 ± 0.6 s. In addition, the “Effect on persistent time of gasping movement after decapitation (in words)” value (“Effect on persistent time” for short) was “dose-dependent prolongation” in assay [4] (10, 30, 100 and 300 μg/kg s.c.); “dose-dependent prolongation” in assay [5]. For the same molecule, the Infarct volume in assay [6] (0.05 mg/kg i.v. immediately after and 30 minutes after MCA occlusion-reperfusion, P<0.05) is listed as 208.2 ± 22.2* mm^3; in assay [6] (0.5 mg/kg i.v. immediately after and 30 minutes after MCA occlusion-reperfusion, P<0.01), 172.9 ± 25.5** mm^3. Besides, the “Effect on cerebral infarct volume after ischemia (in words)” value in assay [6] (0.05 and 0.5 mg/kg i.v., compared with vehicle group) is “significantly reduced the cerebral infarct volume”.

Consider `CCCCC(F)(F)C(=O)CCC1CCC(=O)C1CCCCCCC(=O)OC` (centres unmarked) [Compound B, 11-deoxy-13,14-dihydro-15-keto-16,16-difluoro-PGE1 methyl ester], for which the “Persistent Time of Gasping Movements” value in assay [5] (100 μg/kg p.o.) was 17.6 ± 0.5 s; in assay [5] (300 μg/kg p.o.), 19.1 ± 0.5 s; in assay [5] (1000 μg/kg p.o.), 19.1 ± 0.4 s. The “Effect on persistent time” value in assay [5] is on record as “dose-dependent prolongation”.

As to `CCCCC(F)(F)C(O)CCC1CCC(=O)C1CCCCCCC(=O)O` (centres unmarked) [Compound C, 11-deoxy-13,14-dihydro-16,16-difluoro-PGE1], the “Effect on persistent time” value in assay [7] was “significant prolongation”. Besides, the “Persistent Time of Gasping Movements” value in assay [7] (decapitated 30 minutes after administration, Mean ± SE, n=10, p<0.01 vs vehicle) turned out to be 25.2 ± 0.7 s.
